# Patent publication US10770169B2, “Method of providing a treatment to a subject based on a dynamic pathway map” (THE REGENTS OF THE UNIVERSITY OF CALIFORNIA, priority 2010, dated 2020)
# Tested on: panel of 55 breast cancer cell lines
# Test: Cell growth inhibition assay (Cell Titer Glo, 72 h, 9 doses; GI50, TGI, LC50)
# Assay type: cell-based, human
# Settings: value is the negative log10 of mol/L
# [1] = BT20 cell line, censored GI50 values
# [2] = BT474 cell line, censored GI50 values
# [3] = BT483 cell line, censored GI50 values
# [4] = CAMA1 cell line, censored GI50 values
# [5] = HCC38 cell line, censored GI50 values
# [6] = HCC70 cell line, censored GI50 values
# [7] = HCC1187 cell line, censored GI50 values
# [8] = HCC1428 cell line, censored GI50 values
# [9] = HCC1500 cell line, censored GI50 values
# [10] = HCC1954 cell line, censored GI50 values
# [11] = HCC2185 cell line, censored GI50 values
# [12] = HCC3153 cell line, censored GI50 values
# [13] = MDAMB134VI cell line, censored GI50 values
# [14] = MDAMB175VII cell line, censored GI50 values
# [15] = MDAMB453 cell line, censored GI50 values
# [16] = MDAMB468 cell line, censored GI50 values
# [17] = SKBR3 cell line, censored GI50 values
# [18] = SUM52PE cell line, censored GI50 values
# [19] = SUM149PT cell line, censored GI50 values
# [20] = SUM1315MO2 cell line, censored GI50 values
# [21] = UACC812 cell line, censored GI50 values
# [22] = ZR75B cell line, censored GI50 values
smiles,measurement,setting,value
N#Cc1c(NC(=O)c2cccc3ccccc23)sc2c1CCCC2 [TCS JNK 5a],GI50,[1],5.97
same,GI50,[2],4.17
same,GI50,[3],5.94
same,GI50,[4],5.48
same,GI50,[5],5.32
same,GI50,[6],5.64
same,GI50,"HCC1143 cell line, censored GI50 values",4.21
same,GI50,[7],6.08
same,GI50,"HCC1395 cell line, censored GI50 values",6.21
same,GI50,[8],4.61
same,GI50,[9],5.31
same,GI50,[10],5.90
same,GI50,[11],4.66
same,GI50,[12],5.59
same,GI50,[13],4.78
same,GI50,[14],5.02
same,GI50,[15],6.12
same,GI50,[16],4.37
same,GI50,[17],5.27
same,GI50,[18],4.86
same,GI50,[19],5.46
same,GI50,[20],6.31
same,GI50,[21],5.72
same,GI50,[22],4.59
same,GI50,cell line BT20,5.97
same,GI50,cell line BT474,4.17
same,GI50,cell line BT483,5.94
same,GI50,cell line CAMA1,5.48
same,GI50,cell line HCC38,5.32
same,GI50,cell line HCC70,5.64
same,GI50,cell line HCC1143,4.21
same,GI50,cell line HCC1187,6.08
same,GI50,cell line HCC1395,6.21
same,GI50,cell line HCC1428,4.61
same,GI50,cell line HCC1500,5.31
same,GI50,cell line HCC1806,3.92
same,GI50,cell line HCC1937,3.88
same,GI50,cell line HCC1954,5.90
same,GI50,cell line HCC2185,4.66
same,GI50,cell line HCC3153,5.59
Cc1cc(C(=O)N2CCN(c3cccc(Cl)c3)CC2)n(-c2ccccc2)n1 [XRP44X],GI50,"AU565 cell line, censored GI50 values",6.35
same,GI50,[1],5.29
same,GI50,[2],5.34
same,GI50,[3],4.18
same,GI50,[4],6.27
same,GI50,[5],5.85
same,GI50,[6],5.98
same,GI50,[7],6.23
same,GI50,[8],5.85
same,GI50,[9],5.74
same,GI50,"HCC1806 cell line, censored GI50 values",5.92
same,GI50,[10],6.30
same,GI50,[11],6.63
same,GI50,[12],5.95
same,GI50,"LY2 cell line, censored GI50 values",6.08
same,GI50,"MCF7 cell line, censored GI50 values",6.40
same,GI50,[13],6.21
same,GI50,[14],5.44
same,GI50,"MDAMB361 cell line, censored GI50 values",6.06
same,GI50,"MDAMB415 cell line, censored GI50 values",6.30
same,GI50,"MDAMB436 cell line, censored GI50 values",5.47
same,GI50,[15],6.20
same,GI50,[16],5.93
same,GI50,[17],5.58
same,GI50,[18],6.06
same,GI50,[19],5.63
same,GI50,"SUM159PT cell line, censored GI50 values",6.16
same,GI50,[20],6.11
same,GI50,"T47D cell line, censored GI50 values",5.29
same,GI50,[21],6.30
same,GI50,[22],5.90
same,GI50,"ZR751 cell line, censored GI50 values",5.90
same,GI50,cell line AU565,6.35
same,GI50,cell line BT20,5.29
same,GI50,cell line BT474,5.34
same,GI50,cell line BT483,4.18
same,GI50,cell line CAMA1,6.27
same,GI50,cell line HCC38,5.85
same,GI50,cell line HCC70,5.98
same,GI50,cell line HCC1187,6.23
same,GI50,cell line HCC1419,3.88
same,GI50,cell line HCC1428,5.85
same,GI50,cell line HCC1500,5.74
same,GI50,cell line HCC1806,5.92
same,GI50,cell line HCC1937,3.88
same,GI50,cell line HCC1954,6.30
same,GI50,cell line HCC2185,6.63
same,GI50,cell line HCC3153,5.95
same,GI50,cell line LY2,6.08
same,GI50,cell line MCF7,6.40
same,GI50,cell line MDAMB134V,6.21
same,GI50,cell line MDAMB175V,5.44
same,GI50,cell line MDAMB361,6.06
same,GI50,cell line MDAMB415,6.30
same,GI50,cell line MDAMB436,5.47
same,GI50,cell line MDAMB453,6.20
same,GI50,cell line MDAMB468,5.93
same,GI50,cell line SKBR3,5.58
same,GI50,cell line SUM52PE,6.06
same,GI50,cell line SUM149PT,5.63
same,GI50,cell line SUM159PT,6.16
same,GI50,cell line SUM1315MO,6.11
same,GI50,cell line T47D,5.29
same,GI50,cell line UACC812,6.30
same,GI50,cell line ZR75B,5.90
same,GI50,cell line ZR751,5.90
